Measurements reported in the supplement of paper PMC10307832.

Each cell line was assayed with CC[C@@H]1C(=O)N(C)c2cnc(Nc3ccc(C(=O)NC4CCN(C)CC4)cc3OC)nc2N1C1CCCC1 [BI-2536] + CS(=O)(=O)CCNCc1ccc(-c2ccc3ncnc(Nc4ccc(OCc5cccc(F)c5)c(Cl)c4)c3c2)o1 [Lapatinib] (partner 2 µM) (assay: relative viability (nuclei count vs DMSO), 5 days (fraction); higher = more cells survive). Conditions: first compound 0.01 µM.
In short: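 A single step with final 0.05% Triton X-100, 1% formaldehyde and 1 ug/ml Hoechst fixed the cells and stained nuclei 5 days after treatment. Lung cancer cell lines in 1536-well plates had been treated by pin tool the day after seeding with one drug alone or a fixed anchor-drug dose plus five library-drug doses (not always all listed) in √10 steps, and nuclei were counted on 4× images. Relative viability is the ratio of nuclei in treated wells to nuclei in vehicle wells, taken as the median of duplicate plates.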

First: NCI-H2085
Second: Calu-6
The relative viability of the first is lower: 0.781 for the first, 0.957 for the second.

First: HCC-366
Second: NCI-H1666
The relative viability of the first is higher: 1.06 for the first, 0.779 for the second.

Compared with NCI-H596, LK-2 is lower in relative viability: 1.17 for the first, 0.883 for the second.

Going from NCI-H2087 to SK-MES-1, the relative viability falls from 1.38 to 0.465.

Compared with H3255, COR-L23 is higher in relative viability: 0.256 for the first, 1.05 for the second.

Going from COR-L 105 to IA-LM, the relative viability rises from 0.309 to 0.699.

First: LOU-NH91
Second: NCI-H2170
The relative viability of the first is higher: 0.794 for the first, 0.291 for the second.

Going from NCI-H2405 to HOP-62, the relative viability falls from 1.01 to 0.965.

Going from HCC-44 to A549, the relative viability falls from 1.07 to 1.05.

Compared with LU99A, BEN is lower in relative viability: 0.889 for the first, 0.631 for the second.

Compared with HARA, HCC-78 is lower in relative viability: 0.703 for the first, 0.403 for the second.

Compared with NCI-H322M, LCLC-97TM1 is higher in relative viability: 0.545 for the first, 0.919 for the second.

Going from NCI-H2009 to A-427, the relative viability rises from 0.869 to 0.905.

Going from NCI-H661 to NCI-H1734, the relative viability rises from 0.498 to 1.04.

First: NCI-H460
Second: NCI-H2347
The relative viability of the first is higher: 1.04 for the first, 0.786 for the second.

First: SK-LU-1
Second: NCI-H1395
The relative viability of the first is lower: 0.815 for the first, 0.868 for the second.

Same assay, conditions: first compound 0.03162 µM

Going from NCI-H2085 to Calu-6, the relative viability falls from 0.71 to 0.666.

First: HCC-366
Second: NCI-H1666
The relative viability of the first is higher: 0.682 for the first, 0.582 for the second.

Compared with NCI-H596, LK-2 is lower in relative viability: 1.05 for the first, 0.81 for the second.

Going from NCI-H2087 to SK-MES-1, the relative viability falls from 0.992 to 0.45.

Compared with H3255, COR-L23 is higher in relative viability: 0.225 for the first, 0.776 for the second.

Compared with COR-L 105, IA-LM is higher in relative viability: 0.364 for the first, 0.639 for the second.

First: LOU-NH91
Second: NCI-H2170
The relative viability of the first is higher: 0.756 for the first, 0.273 for the second.

First: NCI-H2405
Second: HOP-62
The relative viability of the first is lower: 0.97 for the first, 0.99 for the second.

Compared with HCC-44, A549 is lower in relative viability: 0.988 for the first, 0.813 for the second.

First: LU99A
Second: BEN
The relative viability of the first is higher: 1.07 for the first, 0.578 for the second.

Going from HARA to HCC-78, the relative viability rises from 0.814 to 0.885.

Compared with NCI-H322M, LCLC-97TM1 is higher in relative viability: 0.483 for the first, 0.737 for the second.

Compared with NCI-H2009, A-427 is higher in relative viability: 0.64 for the first, 1.08 for the second.

First: NCI-H661
Second: NCI-H1734
The relative viability of the first is lower: 0.543 for the first, 0.81 for the second.

Compared with NCI-H460, NCI-H2347 is higher in relative viability: 0.257 for the first, 0.986 for the second.

Compared with SK-LU-1, NCI-H1395 is higher in relative viability: 0.715 for the first, 0.905 for the second.

Same assay, conditions: first compound 0.1 µM

First: NCI-H2085
Second: Calu-6
The relative viability of the first is lower: 0.427 for the first, 0.703 for the second.

First: HCC-366
Second: NCI-H1666
The relative viability of the first is lower: 0.04 for the first, 0.29 for the second.

First: NCI-H596
Second: LK-2
The relative viability of the first is higher: 0.571 for the first, 0.336 for the second.

First: NCI-H2087
Second: SK-MES-1
The relative viability of the first is higher: 0.594 for the first, 0.503 for the second.

Going from H3255 to COR-L23, the relative viability rises from 0.076 to 0.357.

Going from COR-L 105 to IA-LM, the relative viability rises from 0.271 to 0.408.

Compared with LOU-NH91, NCI-H2170 is lower in relative viability: 0.663 for the first, 0.205 for the second.

First: NCI-H2405
Second: HOP-62
The relative viability of the first is lower: 0.301 for the first, 0.705 for the second.

First: HCC-44
Second: A549
The relative viability of the first is lower: 0.287 for the first, 0.476 for the second.

Compared with LU99A, BEN is higher in relative viability: 0.193 for the first, 0.479 for the second.

Going from HARA to HCC-78, the relative viability rises from 0.569 to 0.814.

Going from NCI-H322M to LCLC-97TM1, the relative viability falls from 0.59 to 0.114.

Going from NCI-H2009 to A-427, the relative viability rises from 0.101 to 1.

First: NCI-H661
Second: NCI-H1734
The relative viability of the first is lower: 0.398 for the first, 0.427 for the second.

First: NCI-H460
Second: NCI-H2347
The relative viability of the first is lower: 0.206 for the first, 0.769 for the second.

First: SK-LU-1
Second: NCI-H1395
The relative viability of the first is higher: 0.495 for the first, 0.415 for the second.

Same assay, conditions: first compound 0.3162 µM

First: NCI-H2085
Second: Calu-6
The relative viability of the first is higher: 0.252 for the first, 0.122 for the second.

First: HCC-366
Second: NCI-H1666
The relative viability of the first is lower: 0.0163 for the first, 0.231 for the second.

Compared with NCI-H596, LK-2 is lower in relative viability: 0.346 for the first, 0.163 for the second.

First: NCI-H2087
Second: SK-MES-1
The relative viability of the first is lower: 0.138 for the first, 0.213 for the second.

Compared with H3255, COR-L23 is lower in relative viability: 0.117 for the first, 0.0913 for the second.

First: COR-L 105
Second: IA-LM
The relative viability of the first is higher: 0.248 for the first, 0.139 for the second.

Compared with LOU-NH91, NCI-H2170 is lower in relative viability: 0.284 for the first, 0.199 for the second.

First: NCI-H2405
Second: HOP-62
The relative viability of the first is higher: 0.146 for the first, 0.142 for the second.

First: HCC-44
Second: A549
The relative viability of the first is higher: 0.0973 for the first, 0.053 for the second.

First: LU99A
Second: BEN
The relative viability of the first is lower: 0.202 for the first, 0.228 for the second.

Going from HARA to HCC-78, the relative viability rises from 0.0764 to 0.39.

First: NCI-H322M
Second: LCLC-97TM1
The relative viability of the first is higher: 0.673 for the first, 0.13 for the second.

Going from NCI-H2009 to A-427, the relative viability rises from 0.158 to 0.969.

Going from NCI-H661 to NCI-H1734, the relative viability falls from 0.224 to 0.205.

Compared with NCI-H460, NCI-H2347 is higher in relative viability: 0.0105 for the first, 0.413 for the second.

First: SK-LU-1
Second: NCI-H1395
The relative viability of the first is lower: 0.252 for the first, 0.353 for the second.

Same assay, conditions: first compound 1 µM

Going from NCI-H2085 to Calu-6, the relative viability falls from 0.324 to 0.132.

First: HCC-366
Second: NCI-H1666
The relative viability of the first is lower: 0.0221 for the first, 0.262 for the second.

First: NCI-H596
Second: LK-2
The relative viability of the first is higher: 0.273 for the first, 0.199 for the second.

Compared with NCI-H2087, SK-MES-1 is higher in relative viability: 0.146 for the first, 0.186 for the second.

Going from H3255 to COR-L23, the relative viability falls from 0.143 to 0.102.

Going from COR-L 105 to IA-LM, the relative viability falls from 0.269 to 0.0816.

Going from LOU-NH91 to NCI-H2170, the relative viability falls from 0.291 to 0.171.

First: NCI-H2405
Second: HOP-62
The relative viability of the first is higher: 0.448 for the first, 0.135 for the second.

First: HCC-44
Second: A549
The relative viability of the first is higher: 0.0863 for the first, 0.0394 for the second.

Compared with LU99A, BEN is higher in relative viability: 0.211 for the first, 0.235 for the second.

Going from HARA to HCC-78, the relative viability rises from 0.0911 to 0.18.

Going from NCI-H322M to LCLC-97TM1, the relative viability falls from 0.251 to 0.117.

First: NCI-H2009
Second: A-427
The relative viability of the first is lower: 0.0981 for the first, 0.135 for the second.

First: NCI-H661
Second: NCI-H1734
The relative viability of the first is lower: 0.179 for the first, 0.206 for the second.

Going from NCI-H460 to NCI-H2347, the relative viability rises from 0.011 to 0.621.
